What was measured:
Assay type in all cases: functional
Parameters in all cases: scale not given: the % may be the effect or the level left
[1] = system: Mycobacterium tuberculosis; assay: Antitubercular activity against Mycobacterium tuberculosis H37Rv assessed as reduction in RLU at 500 ug/mL after 72 hrs by luciferase reporter phage assay
[2] = system: Mycobacterium tuberculosis; assay: Antitubercular activity against Mycobacterium tuberculosis H37Rv assessed as reduction in RLU at 100 ug/mL after 72 hrs by luciferase reporter phage assay
[3] = system: Mycobacterium tuberculosis; assay: Antitubercular activity against Mycobacterium tuberculosis H37Rv assessed as reduction in RLU at 0.5 ug/mL after 72 hrs by luciferase reporter phage assay
[4] = system: Mycobacterium tuberculosis; assay: Antitubercular activity against Mycobacterium tuberculosis H37Rv assessed as reduction in RLU at 2 ug/mL after 72 hrs by luciferase reporter phage assay

Compound | Activity [1] [%] | Activity [2] [%] | Activity [3] [%] | Activity [4] [%]
N#Cc1c(-c2ccc(F)cc2)[nH]c(=O)[nH]c1=O | 44.2 | 46.49 |  | 
N#Cc1c(-c2cccc(Cl)c2)[nH]c(=O)[nH]c1=O | 61.02 | 54.28 |  | 
COc1ccc(-c2[nH]c(=O)[nH]c(=O)c2C#N)cc1O | 48.72 | 33.4 |  | 
N#Cc1c(-c2ccc(Cl)cc2)[nH]c(=S)[nH]c1=O | 65.23 | 46.21 |  | 
N#Cc1c(-c2ccc(Br)cc2)[nH]c(=S)[nH]c1=O | 82.04 | 75.73 |  | 
NNC(=O)c1ccncc1 [ISONIAZID] |  |  | 98.42 | 
CO[C@H]1/C=C/O[C@@]2(C)Oc3c(C)c(O)c4c(O)c(c(/C=N/N5CCN(C)CC5)c(O)c4c3C2=O)NC(=O)/C(C)=C\C=C\[C@H](C)[C@H](O)[C@@H](C)[C@@H](O)[C@@H](C)[C@H](OC(C)=O)[C@@H]1C [RIFAMPIN] |  |  |  | 82.58

From ChEMBL document CHEMBL2203181, “Microwave-assisted synthesis, molecular docking and antitubercular activity of 1,2,3,4-tetrahydropyrimidine-5-carbonitrile derivatives” (2012)
